Columns and labels:
[1] = molecular target: Histone-lysine N-methyltransferase EZH2 (Homo sapiens) (UniProt Q15910); test: Inhibition of EZH2 in human CD19+ B cells assessed as decrease in H3K27me3 levels measured as percentage abundance at 4 uM after 6 days by Western blot analysis relative to control; format: cell-based; parameters: scale not given: the % may be the effect or the level left; details: CD19 positive B cell, time 6.0 day
[2] = molecular target: Histone-lysine N-methyltransferase EZH2 (Homo sapiens) (UniProt Q15910); test: Inhibition of EZH2 in human CD19+ B cells assessed as decrease in cell viability at 4 uM after 5 to 13 days by annexin-V/PI staining based flow cytometry; details: CD19 positive B cell, time 5-13 day, TDE = time-dependent effect
[3] = molecular target: Histone-lysine N-methyltransferase EZH2 (Homo sapiens) (UniProt Q15910); test: Inhibition of EZH2 in human CD19+ B cells assessed as decrease in H3K27me3 levels measured as percentage abundance at 4 uM after 4 days by Western blot analysis relative to control; format: cell-based; parameters: scale not given: the % may be the effect or the level left; details: CD19 positive B cell, time 4.0 day
[4] = molecular target: Histone-lysine N-methyltransferase EZH2 (Homo sapiens) (UniProt Q15910); test: Inhibition of EZH2 in human CD19+ B cells assessed as decrease in H3K27me3 levels measured as percentage abundance at 4 uM after 2 days by Western blot analysis relative to control; format: cell-based; parameters: scale not given: the % may be the effect or the level left; details: CD19 positive B cell, time 2.0 day
[5] = molecular target: Histone-lysine N-methyltransferase EZH2 (Homo sapiens) (UniProt Q15910); test: Inhibition of EZH2 in human CD19+ B cells assessed as decrease in H3K27me3 levels measured as percentage abundance at 4 uM after 10 days by Western blot analysis relative to control; format: cell-based; parameters: scale not given: the % may be the effect or the level left; details: CD19 positive B cell, time 10.0 day
[6] = molecular target: Histone-lysine N-methyltransferase EZH2 (Homo sapiens) (UniProt Q15910); test: Inhibition of EZH2 in human CD19+ B cells assessed as decrease in H3K27me3 levels measured as percentage abundance at 4 uM after 8 days by Western blot analysis relative to control; format: cell-based; parameters: scale not given: the % may be the effect or the level left; details: CD19 positive B cell, time 8.0 day
[7] = molecular target: Histone-lysine N-methyltransferase EZH2 (Homo sapiens) (UniProt Q15910); test: Inhibition of EZH2 in human CD19+ B cells assessed as decrease in H3K27me3 levels measured as percentage abundance at 4 uM by Western blot analysis relative to control; format: cell-based; parameters: scale not given: the % may be the effect or the level left; details: CD19 positive B cell

Chain of Histone-lysine N-methyltransferase EZH2 (Homo sapiens) (Q15910 whole entry, looked up): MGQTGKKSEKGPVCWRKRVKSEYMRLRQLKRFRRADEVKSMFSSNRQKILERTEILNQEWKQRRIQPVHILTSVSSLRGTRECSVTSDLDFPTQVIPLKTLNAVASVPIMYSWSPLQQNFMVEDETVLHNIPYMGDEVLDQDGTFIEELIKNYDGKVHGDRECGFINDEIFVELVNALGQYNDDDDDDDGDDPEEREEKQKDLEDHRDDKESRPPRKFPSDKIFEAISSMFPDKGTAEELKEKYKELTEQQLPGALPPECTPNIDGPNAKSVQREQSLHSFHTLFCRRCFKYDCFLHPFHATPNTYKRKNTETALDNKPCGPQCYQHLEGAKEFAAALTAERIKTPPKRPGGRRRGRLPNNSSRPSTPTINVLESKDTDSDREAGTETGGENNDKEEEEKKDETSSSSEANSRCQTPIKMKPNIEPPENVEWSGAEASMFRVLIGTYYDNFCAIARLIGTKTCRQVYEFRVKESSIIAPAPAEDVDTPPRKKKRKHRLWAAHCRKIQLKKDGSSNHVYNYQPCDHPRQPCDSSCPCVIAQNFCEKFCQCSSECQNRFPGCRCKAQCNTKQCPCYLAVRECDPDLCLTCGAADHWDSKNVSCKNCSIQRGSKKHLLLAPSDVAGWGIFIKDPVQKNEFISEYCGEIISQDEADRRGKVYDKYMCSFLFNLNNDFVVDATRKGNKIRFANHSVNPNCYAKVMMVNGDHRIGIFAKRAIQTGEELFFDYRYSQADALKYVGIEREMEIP

Activity [1]: 99.5%
Activity [3]: 100%
Activity [4]: 99.6%
Activity [5]: 65.2%
Activity [6]: 65.1%
Activity [7]: 66%
SMILES: CCCc1cc(C)[nH]c(=O)c1CNC(=O)c1cc(-c2ccnc(N3CCN(C)CC3)c2)cc2c1cnn2C(C)C
inhibition [2]: Tde
